Data on 31 compounds can be found in patent US8299086B2, “Pyrimidine derivatives” (Actelion Pharmaceuticals Ltd., priority 2007, dated 2012).

Sequence of recombinant human S1P1 receptor (P21453 whole entry): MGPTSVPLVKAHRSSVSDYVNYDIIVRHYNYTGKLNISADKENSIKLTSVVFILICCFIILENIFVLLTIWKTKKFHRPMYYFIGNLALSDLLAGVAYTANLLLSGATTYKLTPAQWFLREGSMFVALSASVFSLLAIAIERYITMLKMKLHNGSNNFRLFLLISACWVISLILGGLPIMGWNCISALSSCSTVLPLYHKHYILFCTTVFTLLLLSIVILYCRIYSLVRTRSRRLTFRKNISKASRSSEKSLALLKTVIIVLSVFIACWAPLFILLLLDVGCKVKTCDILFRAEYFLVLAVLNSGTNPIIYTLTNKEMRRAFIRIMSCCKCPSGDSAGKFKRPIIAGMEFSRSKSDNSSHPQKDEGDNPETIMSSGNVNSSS

The target of one test is recombinant human S1P1 receptor (Homo sapiens, UniProt P21453). Kind of test: GTPγS assay to determine EC50 values. The class given is biochemical. Particulars: 35S-GTPγS binding, membranes of CHO cells expressing recombinant human S1P1 receptor. On the procedure:
GTPγS assay to determine EC50 values
GTPγS binding assays are performed in 96 well microtiter plates (Nunc, 442587) in a final volume of 200 μl, using membrane preparations of CHO cells expressing recombinant human S1P1 receptor. Assay conditions are 20 mM Hepes (Fluka, 54461), 100 mM NaCl (Fluka, 71378), 5 mM MgCl2 (Fluka, 63064), 0.1% BSA (Calbiochem, 126609), 1 μM GDP (Sigma, G-7127), 2.5% DMSO (Fluka, 41644), […] ^35S-GTPγS (Amersham Biosciences, SJ1320). The pH is 7.4. Test compounds are dissolved and diluted in 100% DMSO and pre-incubated at room temperature for 30 min in 150 μl of the above assay buffer, in the absence of ^35S-GTPγS. After addition of 50 μl of ^35S-GTPγS, the assay is incubated for 1 h at rt. The assay is terminated by transfer of the reaction mixture to a Multiscreen plate (Millipore, MAHFC1H60) using a cell harvester from Packard Biosciences, and the plates are washed with ice-cold 10 mM Na2HPO4/NaH2PO4 (70%/30%), dried, sealed at the bottom and, after addition of 25 μl MicroScint20 (Packard Biosciences, order#6013621), sealed on the top. Membrane-bound ^35S-GTPγS is measured with a TopCount from Packard Biosciences.
EC50 is the concentration of agonist inducing 50% of the maximal specific ^35S-GTPγS binding. Specific binding is determined by subtracting non-specific binding from maximal binding. Maximal binding is the amount of cpm bound to the Multiscreen plate in the presence of 10 μM of S1P. Non-specific binding is the amount of binding in the absence of an agonist in the assay.
(In general: GTPγS is a poorly hydrolysed GTP analogue; its binding reports G protein activation.)
`CCN(CC)c1nc(C)cc(-c2nc(-c3ccc(CC(=O)N4CCC[C@H]4C(=O)O)cc3)no2)n1` [Example 132]: the EC50 was more than 10000 nM.

The test is the same for the next values; noted with them: 35S-GTPγS binding, membranes of CHO cells expressing recombinant human S1P1 receptor, pH 7.4.
Consider `COc1cc(-c2noc(-c3cc(C)nc(NC(C)C)n3)n2)cc(C)c1OC[C@@H](O)CO` [Example 78, (S)-3-{4-[5-(2-isopropylamino-6-methyl-pyrimidin-4-yl)-[1,2,4]oxadiazol-3-yl]-2-methoxy-6-methyl-phenoxy}-propane-1,2-diol], for which the EC50 was 5.8 nM.

As for `Cc1cc(-c2nc(-c3ccc(CC(O)CO)cc3)no2)nc(NC(C)C)n1` (racemic) [Example 149, rac-3-{4-[5-(2-Isopropylamino-6-methyl-pyrimidin-4-yl)-[1,2,4]oxadiazol-3-yl]-phenyl}-propane-1,2-diol], the 50% effective concentration (EC50) was found to be 25 nM.

With `CCc1cc(-c2noc(-c3cc(C)nc(N(CC)CC)n3)n2)cc(C)c1OCCN1CCC(C(=O)O)C1` (stereo not shown) [Example 109], the EC50 was determined as 8.4 nM.

As to `CCc1cc(-c2noc(-c3cc(C)nc(NC4CC4)n3)n2)cc(C)c1OC[C@@H](O)CO` [Example 63, (S)-3-{4-[5-(2-cyclopropylamino-6-methyl-pyrimidin-4-yl)-[1,2,4]oxadiazol-3-yl]-2-ethyl-6-methyl-phenoxy}-propane-1,2-diol], the EC50 came to 0.25 nM.

Regarding `CCc1cc(-c2noc(-c3cc(C)nc(NC(C)C)n3)n2)cc(C)c1CCC(=O)NCC(O)CO` (stereo not shown) [Example 140], the EC50 is 12.6 nM.

For `CCCOc1nc(C)cc(-c2nc(-c3cc(C)c(OCC(O)CNC(=O)CO)c(C)c3)no2)n1` (racemic) [Example 14, rac-N-(3-{4-[5-(6-Methyl-2-propoxy-pyrimidin-4-yl)-[1,2,4]oxadiazol-3-yl]-2,6-dimethyl-phenoxy}-2-hydroxy-propyl)-2-hydroxy-acetamide], the half-maximal effective concentration (EC50) was 26 nM.

Regarding `CCN(CC)c1nc(C)cc(-c2nc(-c3ccc(CC(=O)N4CC(C(=O)O)C4)cc3)no2)n1` [Example 131], the EC50 was found to be 44.6 nM.

On to `CCc1cc(-c2nc(-c3cc(C)nc(N(C)CC(C)C)n3)no2)cc(C)c1OC[C@@H](O)CNC(=O)CO` [Example 86, (S)—N-[3-(2-Ethyl-4-{3-[2-(isobutyl-methyl-amino)-6-methyl-pyrimidin-4-yl]-[1,2,4]oxadiazol-5-yl}-6-methyl-phenoxy)-2-hydroxy-propyl]-2-hydroxy-acetamide], for which the EC50 was 5.7 nM.

In the case of `Cc1cc(-c2nc(-c3cc(C)c(OC[C@@H](O)CNC(=O)CO)c(Cl)c3)no2)nc(OC(C)C)n1` [Example 54, N—((S)-3-{2-chloro-4-[5-(2-isopropoxy-6-methyl-pyrimidin-4-yl)-[1,2,4]oxadiazol-3-yl]-6-methyl-phenoxy}-2-hydroxy-propyl)-2-hydroxy-acetamide], the concentration for a half-maximal effect (EC50) was found to be 1 nM.

As to `CCN(CC)c1nc(C)cc(-c2nc(-c3ccc(CCNS(C)(=O)=O)cc3)no2)n1` [Example 128, N-(2-{4-[5-(2-Diethylamino-6-methyl-pyrimidin-4-yl)-[1,2,4]oxadiazol-3-yl]-phenyl}-ethyl)-methanesulfonamide], the EC50 worked out at 74.4 nM.

In the case of `CCc1cc(-c2nnc(-c3cc(C)nc(OCC(C)C)n3)s2)cc(C)c1OC[C@@H](O)CO` [Example 99], the EC50 was found to be 3730 nM.

For `Cc1cc(-c2nc(-c3ccc(C(O)CN)cc3)no2)nc(NC(C)C)n1` (racemic) [Example 144, rac-2-Amino-1-{4-[5-(2-isopropylamino-6-methyl-pyrimidin-4-yl)-[1,2,4]oxadiazol-3-yl]-phenyl}-ethanol], the concentration giving a half-maximal response (EC50) is 80.3 nM.

With `CCc1cc(-c2noc(-c3cc(C)nc(N(CC)CC)n3)n2)cc(C)c1OC(CO)CO` [Example 100, 2-{4-[5-(2-Diethylamino-6-methyl-pyrimidin-4-yl)-[1,2,4]oxadiazol-3-yl]-2-ethyl-6-methyl-phenoxy}-propane-1,3-diol], the EC50 was 5.1 nM.

Regarding `CCc1cc(-c2noc(-c3cc(C)nc(N(CC)CC)n3)n2)cc(C)c1OCCNCCO` [Example 103], the EC50 was 72.1 nM.

As for `Cc1cc(-c2nc(-c3cc(C)c(OCC(O)CNC(=O)CO)c(C)c3)no2)nc(NC(C)C)n1` (racemic) [Example 7, rac-N-(3-{4-[5-(2-Isopropylamino-6-methyl-pyrimidin-4-yl)-[1,2,4]oxadiazol-3-yl]-2,6-dimethyl-phenoxy}-2-hydroxy-propyl)-2-hydroxy-acetamide], the 50% effective concentration (EC50) came out at 0.88 nM.

On to `CCc1cc(-c2noc(-c3cc(CC(C)C)nc(NC)n3)n2)cc(C)c1OC[C@@H](O)CNC(=O)CO` [Example 35, N—((S)-3-{2-ethyl-4-[5-(6-isobutyl-2-methylamino-pyrimidin-4-yl)-[1,2,4]oxadiazol-3-yl]-6-methyl-phenoxy}-2-hydroxy-propyl)-2-hydroxy-acetamide], for which the half-maximal effective concentration (EC50) was 1.37 nM.

`CCc1cc(-c2nnc(-c3cc(C)nc(OC(C)C)n3)o2)cc(C)c1OC[C@@H](O)CNC(=O)CO` [Example 89]: the 50% effective concentration (EC50) was 39.4 nM.

Consider `CCNc1nc(C)cc(-c2nc(-c3cc(C)c(OCC(O)CNC(=O)CO)c(C)c3)no2)n1` (racemic) [Example 4, rac-N-(3-{4-[5-(2-Ethylamino-6-methyl-pyrimidin-4-yl)-[1,2,4]oxadiazol-3-yl]-2,6-dimethyl-phenoxy}-2-hydroxy-propyl)-2-hydroxy-acetamide], for which the EC50 is 0.46 nM.

Take `CCOc1nc(CC)cc(-c2nc(-c3cc(C)c(OC[C@@H](O)CNC(=O)CO)c(CC)c3)no2)n1` [Example 41, N—((S)-3-{4-[5-(2-ethoxy-6-ethyl-pyrimidin-4-yl)-[1,2,4]oxadiazol-3-yl]-2-ethyl-6-methyl-phenoxy}-2-hydroxy-propyl)-2-hydroxy-acetamide]: the EC50 came out at 4.5 nM.

On to `CCc1cc(-c2noc(-c3cc(C)nc(NCC(C)C)n3)n2)cc(C)c1OC[C@@H](O)CNC(=O)CO` [Example 2, N—((S)-3-{2-Ethyl-4-[5-(2-isobutylamino-6-methyl-pyrimidin-4-yl)-[1,2,4]oxadiazol-3-yl]-6-methyl-phenoxy}-2-hydroxy-propyl)-2-hydroxy-acetamide], for which the EC50 came out at 1.2 nM.

Take `Cc1cc(-c2nc(-c3cc(C)c(OC[C@@H](O)CNC(=O)CO)c(C)c3)no2)nc(OCC(C)C)n1` [Example 46]: the EC50 stood at 3.7 nM.

For `Cc1cc(-c2nc(-c3cc(C)c(OCC(O)CO)c(C)c3)no2)nc(NC(C)C)n1` (racemic) [Example 19, rac-3-{4-[5-(2-Isopropylamino-6-methyl-pyrimidin-4-yl)-[1,2,4]oxadiazol-3-yl]-2,6-dimethyl-phenoxy}-propane-1,2-diol], the concentration giving a half-maximal response (EC50) is 2.27 nM.

Regarding `CCc1cc(-c2noc(-c3cc(C)nc(N(CC)CC)n3)n2)cc(C)c1OC[C@@H](O)CNS(=O)(=O)CC` [Example 117], the EC50 was 22.3 nM.

As for `CCc1cc(-c2noc(-c3cc(C)nc(N(CC)CC)n3)n2)cc(C)c1OC[C@@H](O)CNCCC(=O)O` [Example 126, 3-((S)-3-{4-[5-(2-diethylamino-6-methyl-pyrimidin-4-yl)-[1,2,4]oxadiazol-3-yl]-2-ethyl-6-methyl-phenoxy}-2-hydroxy-propylamino)-propionic acid], the 50% effective concentration (EC50) was 1.4 nM.

In the case of `CCc1cc(-c2noc(-c3cc(C)nc(NC(C)C)n3)n2)cc(C)c1CCC(=O)NCCC(=O)O` [Example 134], the concentration for a half-maximal effect (EC50) is 2 nM.

With `CCc1cc(-c2noc(-c3cc(C)nc(N(CC)CC)n3)n2)cc(C)c1OCCNC(=O)CN` [Example 112], the EC50 is 12.5 nM.

As for `Cc1cc(-c2nc(-c3cc(C)c(OC[C@@H](O)CO)c(Cl)c3)no2)nc(OC(C)C)n1` [Example 81, (S)-3-{2-chloro-4-[5-(2-isopropoxy-6-methyl-pyrimidin-4-yl)-[1,2,4]oxadiazol-3-yl]-6-methyl-phenoxy}-propane-1,2-diol], the concentration for a half-maximal effect (EC50) is 7.4 nM.

Regarding `Cc1cc(-c2nc(-c3ccc(CC(O)CNCCO)cc3)no2)nc(NC(C)C)n1` (stereo not shown) [Example 154], the EC50 was 331 nM.

`CCc1cc(-c2noc(-c3cc(CC(C)C)nc(OC)n3)n2)cc(C)c1OC[C@@H](O)CNC(=O)CO` [Example 43, N—((S)-3-{2-ethyl-4-[5-(6-isobutyl-2-methoxy-pyrimidin-4-yl)-[1,2,4]oxadiazol-3-yl]-6-methyl-phenoxy}-2-hydroxy-propyl)-2-hydroxy-acetamide]: the 50% effective concentration (EC50) stood at 0.97 nM.

For `CCc1cc(-c2noc(-c3cc(C)nc(NC4CC4)n3)n2)cc(C)c1OC[C@@H](O)CNC(=O)CO` [Example 31, N—((S)-3-{4-[5-(2-cyclopropylamino-6-methyl-pyrimidin-4-yl)-[1,2,4]oxadiazol-3-yl]-2-ethyl-6-methyl-phenoxy}-2-hydroxy-propyl)-2-hydroxy-acetamide], the EC50 amounted to 0.17 nM.

The term EC50 denotes the concentration giving half of the maximal effect.
